Assays:
[1] = system: rat liver cDNAs SEQ ID NOs: 62-202; experiment: Abundance of cDNA clones in toxin-treated rat liver cDNA libraries (transcript imaging), Sprague-Dawley; assay type: in vivo; settings: Strain SD
Protocol: Columns 1 and 2 show the SEQ ID NO and Clone ID of the rat cDNA clone, respectively.
Abundance of a clone was determined by counting the number of clones present in a master cluster.
Abundance of a particular cDNA in the library profile was determined by summing the total number of copies of the clones present in the master cluster in that library.

[2] = system: rat liver cDNAs SEQ ID NOs: 1-61; assay type: in vivo, Han/Wistar rat; settings: Strain HW
[3] = system: rat liver cDNAs SEQ ID NOs: 1-61; assay type: in vivo, Han/Wistar rat; settings: Strain HW, Sex F

c1ccc2c(c1)cc1ccc3cccc4ccc2c1c34 [benzo(a)pyrene]
10: Maximum Abundance, SEQ ID NO 85, Clone ID 700302152 [1]
5: Maximum Abundance, SEQ ID NO 108, Clone ID 701711993 [1] | Maximum Abundance, SEQ ID NO 110, Clone ID 700192259 [1] | Maximum Abundance, SEQ ID NO 112, Clone ID 701317696 [1] | Maximum Abundance, SEQ ID NO 187, Clone ID 700933309 [1]
11: Maximum Abundance, SEQ ID NO 109, Clone ID 700250903 ([1]; Sex M)
7: Maximum Abundance, SEQ ID NO 74, Clone ID 700137978 ([1]; Sex F)
13: Maximum Abundance, SEQ ID NO 86, Clone ID 700305538 [1]
6: Maximum Abundance, SEQ ID NO 91, Clone ID 700363445 [1] | Maximum Abundance, SEQ ID NO 186, Clone ID 700068662 [1] | Maximum Abundance, SEQ ID NO 7, Clone ID 700250279 [2] | Maximum Abundance, SEQ ID NO 9, Clone ID 700308908 [2]
1: Maximum Abundance, SEQ ID NO 193, Clone ID 700858043 ([1]; Sex F)
2: Maximum Abundance, SEQ ID NO 188, Clone ID 700024288 ([1]; Sex F) | Maximum Abundance, SEQ ID NO 190, Clone ID 700066933 ([1]; Sex F) | Maximum Abundance, SEQ ID NO 196, Clone ID 700062747 ([1]; Sex M)
3: Maximum Abundance, SEQ ID NO 76, Clone ID 700059750 [1] | Maximum Abundance, SEQ ID NO 77, Clone ID 700123903 [1] | Maximum Abundance, SEQ ID NO 78, Clone ID 700135554 [1] | Maximum Abundance, SEQ ID NO 82, Clone ID 700185570 [1] | Maximum Abundance, SEQ ID NO 83, Clone ID 700244879 [1] | Maximum Abundance, SEQ ID NO 87, Clone ID 700307329 [1] | Maximum Abundance, SEQ ID NO 90, Clone ID 700330391 [1] | Maximum Abundance, SEQ ID NO 92, Clone ID 700480903 [1] | Maximum Abundance, SEQ ID NO 93, Clone ID 700482908 [1] | Maximum Abundance, SEQ ID NO 94, Clone ID 700935261 [1] | Maximum Abundance, SEQ ID NO 95, Clone ID 700939101 [1] | Maximum Abundance, SEQ ID NO 96, Clone ID 700950626 [1] | Maximum Abundance, SEQ ID NO 97, Clone ID 701316308 [1] | Maximum Abundance, SEQ ID NO 98, Clone ID 701316810 [1] | Maximum Abundance, SEQ ID NO 99, Clone ID 701327688 [1] | Maximum Abundance, SEQ ID NO 100, Clone ID 701337820 [1] | Maximum Abundance, SEQ ID NO 102, Clone ID 701432317 [1] | Maximum Abundance, SEQ ID NO 103, Clone ID 701472012 [1] | Maximum Abundance, SEQ ID NO 104, Clone ID 701472036 [1] | Maximum Abundance, SEQ ID NO 105, Clone ID 701517108 [1] | Maximum Abundance, SEQ ID NO 107, Clone ID 701241446 [1] | Maximum Abundance, SEQ ID NO 201, Clone ID 700062503 [1] | Maximum Abundance, SEQ ID NO 191, Clone ID 700146747 ([1]; Sex F) | Maximum Abundance, SEQ ID NO 197, Clone ID 700124248 ([1]; Sex M) | Maximum Abundance, SEQ ID NO 200, Clone ID 700282789 ([1]; Sex M)
4: Maximum Abundance, SEQ ID NO 79, Clone ID 700175783 [1] | Maximum Abundance, SEQ ID NO 80, Clone ID 700176825 [1] | Maximum Abundance, SEQ ID NO 81, Clone ID 700177142 [1] | Maximum Abundance, SEQ ID NO 84, Clone ID 700246085 [1] | Maximum Abundance, SEQ ID NO 88, Clone ID 700323326 [1] | Maximum Abundance, SEQ ID NO 89, Clone ID 700328990 [1] | Maximum Abundance, SEQ ID NO 101, Clone ID 701432276 [1] | Maximum Abundance, SEQ ID NO 106, Clone ID 701710808 [1] | Maximum Abundance, SEQ ID NO 111, Clone ID 700269330 [1] | Maximum Abundance, SEQ ID NO 202, Clone ID 700490891 [1] | Maximum Abundance, SEQ ID NO 75, Clone ID 701709967 ([1]; Sex F) | Maximum Abundance, SEQ ID NO 6, Clone ID 700062791 [2] | Maximum Abundance, SEQ ID NO 8, Clone ID 700312413 [2]

CC(C)OC(=O)C(C)(C)Oc1ccc(C(=O)c2ccc(Cl)cc2)cc1 [Feno, fenofibrate]
5: Maximum Abundance, SEQ ID NO 49, Clone ID 700478138 [2] | Maximum Abundance, SEQ ID NO 53, Clone ID 700818852 [2]
4: Maximum Abundance, SEQ ID NO 40, Clone ID 700230123 [2] | Maximum Abundance, SEQ ID NO 45, Clone ID 700305380 [2] | Maximum Abundance, SEQ ID NO 13, Clone ID 700135749 [3]
3: Maximum Abundance, SEQ ID NO 20, Clone ID 700063569 [2] | Maximum Abundance, SEQ ID NO 30, Clone ID 700140375 [2] | Maximum Abundance, SEQ ID NO 35, Clone ID 700179766 [2] | Maximum Abundance, SEQ ID NO 37, Clone ID 700182016 [2] | Maximum Abundance, SEQ ID NO 38, Clone ID 700185871 [2] | Maximum Abundance, SEQ ID NO 39, Clone ID 700198357 [2] | Maximum Abundance, SEQ ID NO 42, Clone ID 700250877 [2] | Maximum Abundance, SEQ ID NO 55, Clone ID 701197728 [2] | Maximum Abundance, SEQ ID NO 60, Clone ID 701597659 [2]
8: Maximum Abundance, SEQ ID NO 31, Clone ID 700140450 [2] | Maximum Abundance, SEQ ID NO 54, Clone ID 700937735 [2]

ClC(Cl)(Cl)Cl [CCI4, carbon tetrachloride]
4: Maximum Abundance, SEQ ID NO 18, Clone ID 700060675 [2] | Maximum Abundance, SEQ ID NO 27, Clone ID 700135733 [2] | Maximum Abundance, SEQ ID NO 29, Clone ID 700137416 [2] | Maximum Abundance, SEQ ID NO 32, Clone ID 700144406 [2] | Maximum Abundance, SEQ ID NO 40, Clone ID 700230123 [2] | Maximum Abundance, SEQ ID NO 45, Clone ID 700305380 [2] | Maximum Abundance, SEQ ID NO 61, Clone ID 701637512 [2]
5: Maximum Abundance, SEQ ID NO 19, Clone ID 700062240 [2] | Maximum Abundance, SEQ ID NO 49, Clone ID 700478138 [2] | Maximum Abundance, SEQ ID NO 53, Clone ID 700818852 [2]
7: Maximum Abundance, SEQ ID NO 26, Clone ID 700132557 [2] | Maximum Abundance, SEQ ID NO 33, Clone ID 700175249 [2]
3: Maximum Abundance, SEQ ID NO 16, Clone ID 700024834 [2] | Maximum Abundance, SEQ ID NO 23, Clone ID 700067778 [2] | Maximum Abundance, SEQ ID NO 24, Clone ID 700123633 [2] | Maximum Abundance, SEQ ID NO 25, Clone ID 700127949 [2] | Maximum Abundance, SEQ ID NO 28, Clone ID 700135850 [2] | Maximum Abundance, SEQ ID NO 30, Clone ID 700140375 [2] | Maximum Abundance, SEQ ID NO 34, Clone ID 700177158 [2] | Maximum Abundance, SEQ ID NO 36, Clone ID 700181614 [2] | Maximum Abundance, SEQ ID NO 37, Clone ID 700182016 [2] | Maximum Abundance, SEQ ID NO 38, Clone ID 700185871 [2] | Maximum Abundance, SEQ ID NO 39, Clone ID 700198357 [2] | Maximum Abundance, SEQ ID NO 41, Clone ID 700248367 [2] | Maximum Abundance, SEQ ID NO 42, Clone ID 700250877 [2] | Maximum Abundance, SEQ ID NO 43, Clone ID 700253694 [2] | Maximum Abundance, SEQ ID NO 44, Clone ID 700303850 [2] | Maximum Abundance, SEQ ID NO 46, Clone ID 700313077 [2] | Maximum Abundance, SEQ ID NO 47, Clone ID 700361225 [2] | Maximum Abundance, SEQ ID NO 48, Clone ID 700363174 [2] | Maximum Abundance, SEQ ID NO 50, Clone ID 700480077 [2] | Maximum Abundance, SEQ ID NO 52, Clone ID 700491990 [2] | Maximum Abundance, SEQ ID NO 56, Clone ID 701257766 [2] | Maximum Abundance, SEQ ID NO 58, Clone ID 701574951 [2] | Maximum Abundance, SEQ ID NO 59, Clone ID 701578278 [2] | Maximum Abundance, SEQ ID NO 60, Clone ID 701597659 [2] | Maximum Abundance, SEQ ID NO 14, Clone ID 700330824 ([2]; Sex F)
8: Maximum Abundance, SEQ ID NO 31, Clone ID 700140450 [2] | Maximum Abundance, SEQ ID NO 54, Clone ID 700937735 [2]
